Results published in patent US8535902B2, “Peptidase substrates” (bioMërieux, S.A., priority 2009, dated 2013).

What was measured:
Test in all cases: Peptidase detection on Columbia medium with substrate, spot inoculation
Type in all cases: cell-based
[1] = test system: Staphylococcus epidermidis NCTC 11 047; conditions: 40 mg substrate in 400 ml Columbia medium; 24 hours at 37° C.; visual reading
Protocol: (§1) A weight of 40 mg of substrate was dissolved in 4 ml of dimethyl sulfoxide and added to 400 ml of previously autoclaved Columbia medium. The medium was distributed into Petri dishes 90 mm in diameter, in a proportion of 20 ml per dish. Seventeen strains of microorganisms stemming from collections and belonging to various species of bacteria and yeasts are inoculated in spots of approximately 10 000 colony-forming units. The media are incubated for 24 hours at 37° C., and then the colonies formed are examined visually.

[2] = test system: Escherichia coli NCTC 10 418; conditions: 40 mg substrate in 400 ml Columbia medium, 24 hours at 37° C., visual reading
Protocol: as §1

[3] = test system: Listeria monocytogenes NCTC 11 994; conditions: 40 mg substrate in 400 ml Columbia medium; 24 hours at 37° C.; visual reading
Protocol: as §1

[4] = test system: Candida albicans ATCC 90 028; conditions: 40 mg substrate in 400 ml Columbia medium; 24 hours at 37° C.; visual reading
Protocol: as §1

[5] = test system: Providencia rettgeri NCTC 7 475; conditions: 40 mg substrate in 400 ml Columbia medium; 24 hours at 37° C.; visual reading
Protocol: as §1

[6] = test system: Pseudomonas aeruginosa NCTC 10 662; conditions: 40 mg substrate in 400 ml Columbia medium; 24 hours at 37° C.; visual reading
Protocol: as §1

[7] = test system: Staphylococcus aureus NCTC 6 571; conditions: 40 mg substrate in 400 ml Columbia medium; 24 hours at 37° C.; visual reading
Protocol: as §1

[8] = test system: Staphylococcus aureus NCTC 11 939; conditions: 40 mg substrate in 400 ml Columbia medium; 24 hours at 37° C.; visual reading
Protocol: as §1

[9] = test system: Candida glabrata NCPF 3 943; conditions: 40 mg substrate in 400 ml Columbia medium; 24 hours at 37° C.; visual reading
Protocol: as §1

[10] = test system: Bacillus subtilis NCTC 9 372; conditions: 40 mg substrate in 400 ml Columbia medium; 24 hours at 37° C.; visual reading
Protocol: as §1

[11] = test system: Serratia marcescens NCTC 10 211; conditions: 40 mg substrate in 400 ml Columbia medium, 24 hours at 37° C., visual reading
Protocol: as §1

[12] = test system: Streptococcus pyogenes NCTC 8 306; conditions: 40 mg substrate in 400 ml Columbia medium; 24 hours at 37° C.; visual reading
Protocol: as §1

[13] = test system: Salmonella typhimurium NCTC 74; conditions: 40 mg substrate in 400 ml Columbia medium; 24 hours at 37° C.; visual reading
Protocol: as §1

[14] = test system: Enterococcus faecalis NCTC 775; conditions: 40 mg substrate in 400 ml Columbia medium, 24 hours at 37° C., visual reading
Protocol: as §1

[15] = test system: Yersinia enterocolitica NCTC 11 176; conditions: 40 mg substrate in 400 ml Columbia medium; 24 hours at 37° C.; visual reading
Protocol: as §1

[16] = test system: Enterococcus faecium NCTC 7 171; conditions: 40 mg substrate in 400 ml Columbia medium; 24 hours at 37° C.; visual reading
Protocol: as §1

[17] = test system: Enterobacter cloacae NCTC 11 936; conditions: 40 mg substrate in 400 ml Columbia medium, 24 hours at 37° C., visual reading
Protocol: as §1

Glycyl-2-(4′-aminostyryl)-N-methyl-benzothiazolinium iodide [Gly-ASBM^+]
Orange: Color ([11]; colony color)
0.5: Growth [9]
Pale: Color ([2]; colony color) | Color ([14]; colony color) | Color ([17]; colony color)
1: Growth [1] | Growth [3] | Growth [4] | Growth [8] | Growth [12] | Growth [14] | Growth [16]
2: Growth [2] | Growth [5] | Growth [6] | Growth [7] | Growth [10] | Growth [11] | Growth [13] | Growth [15] | Growth [17]
